Data on 20 molecules can be found in patent US10221156B2, “Pyridin-3-yl acetic acid derivatives as inhibitors of human immunodeficiency virus replication” (ViiV HEALTHCARE UK (No. 5) LIMITED, priority 2015, dated 2019).

This test concerns recombinant NL-RLuc virus (HIV NL4-3 with Renilla Luciferase) in MT-2 cells. The test can be described thus: Inhibition of HIV replication (NL-RLuc virus in MT-2 cells, luciferase readout). The test is classed as cell-based. From the text:
Inhibition of HIV Replication:
A recombinant NL-RLuc proviral clone was constructed in which a section of the nef gene from NL4-3 was replaced with the Renilla Luciferase gene. This virus is fully infectious and can undergo multiple cycles of replication in cell culture. In addition, the luciferous reporter provides a simple and easy method for quantitating the extent of virus growth and consequently, the antiviral activity of test compounds. The plasmid pNLRLuc contains the proviral NL-Rluc DNA cloned into pUC18 at the PvuII site. The NL-RLuc virus was prepared by transfection of 293T cells with the plasmid pNLRLuc. Transfections were performed using the LipofectAMINE PLUS kit from Invitrogen (Carlsbad, Calif.) according to the manufacturer and the virus generated was titered in MT-2 cells. For susceptibility analyses, the titrated virus was used to infect MT-2 cells in the presence of compound, and after 5 days of incubation, cells were processed and quantitated for virus growth by the amount of expressed luciferase. Assay media was RPMI 1640 supplemented with 10% heat inactivated fetal bovine serum (FBS), 100 units/ml penicillin G/100 units/ml streptomycin, 10 mM HEPES buffer pH 7.55 and 2 mM L-glutamine. The results from at least 2 experiments were used to calculate the EC50 values. Luciferase was quantitated using the Dual Luciferase kit from Promega (Madison, Wis.). Susceptibility of viruses to compounds was determined by incubation in the presence of serial dilutions of the compound. The 50% effective concentration (EC50) was calculated by using the exponential form of the median effect equation where (Fa)=1/[1+(ED50/drug conc.)^m] (Johnson V A, Byington R T. Infectivity Assay. In Techniques in HIV Research. ed. Aldovini A, Walker B D. 71-76. New York: Stockton Press. 1990). Activity equal to A refers to a compound having an EC50≤100 nM, while B and C denote compounds having an EC50 between 100 nM and 1 uM (B) or >1 uM (C).

SMILES strings stand for the structures. Like-named read-outs stand apart in the source and are kept apart here.

Take `Cc1nc(C)c([C@H](OC(C)(C)C)C(=O)O)c(N2CCC(C)(C)CC2)c1-c1ccc(OC2CCC(c3ccc(F)cc3)CC2)cc1` (stereo partly drawn) [Example 16, (S)-2-(tert-Butoxy)-2-(4-(4,4-dimethylpiperidin-1-yl)-5-(4-((4-(4-fluorophenyl)cyclohexyl)oxy)phenyl)-2,6-dimethylpyridin-3-yl)acetic Acid]: the EC50 (MT2, 120 h, read-out: Activity) was less than 0.1 µM.

In the case of `Cc1nc(C)c([C@H](OC(C)(C)C)C(=O)O)c(N2CCC(C)(C)CC2)c1-c1ccc(OCC2(c3ccc(F)cc3)CC2)cc1` [Example 11], the EC50 (MT2, 120 h, read-out: Activity) was less than 0.1 µM and the EC50 (MT2, 120 h, read-out: EC50 μM) is 0.003 µM.

For the molecule `Cc1nc(C)c([C@H](OC(C)(C)C)C(=O)O)c(N2CCC(C)(C)CC2)c1-c1ccc(OCCN2CCOCC2)cc1` [Example 5, (S)-2-(tert-Butoxy)-2-(4-(4,4-dimethylpiperidin-1-yl)-2,6-dimethyl-5-(4-(2-morpholinoethoxy)phenyl)pyridin-3-yl)acetic Acid], the EC50 is less than 0.1 µM (MT2, 120 h, read-out: Activity) and 0.021 µM (MT2, 120 h, read-out: EC50 μM).

With `Cc1nc(C)c([C@H](OC(C)(C)C)C(=O)O)c(N2CCC(C)(C)CC2)c1-c1ccc(OCC2CCC(C)CC2)cc1` (stereo partly drawn) [Example 8, (S)-2-(tert-Butoxy)-2-(4-(4,4-dimethylpiperidin-1-yl)-2,6-dimethyl-5-(4-((4-methylcyclohexyl)methoxy)phenyl)pyridin-3-yl)acetic Acid], under “MT2, 120 h, read-out: Activity”, the EC50 was less than 0.1 µM.

On to `Cc1nc(C)c([C@H](OC(C)(C)C)C(=O)O)c(N2CCC(C)(C)CC2)c1-c1ccc(OCCN2CCCCC2)cc1` [Example 4, (S)-2-(tert-Butoxy)-2-(4-(4,4-dimethylpiperidin-1-yl)-2,6-dimethyl-5-(4-(2-(piperidin-1-yl)ethoxy)phenyl)pyridin-3-yl)acetic Acid], for which, for the setting “MT2, 120 h, read-out: Activity”, the EC50 was less than 0.1 µM.

For the molecule `COc1cccc(C2CCN(CCOc3ccc(-c4c(C)nc(C)c([C@H](OC(C)(C)C)C(=O)O)c4N4CCC(C)(C)CC4)cc3)CC2)c1` [Example 6, (S)-2-(tert-Butoxy)-2-(4-(4,4-dimethylpiperidin-1-yl)-5-(4-(2-(4-(3-methoxyphenyl)piperidin-1-yl)ethoxy)phenyl)-2,6-dimethylpyridin-3-yl)acetic Acid], where the note is “MT2, 120 h, read-out: Activity”, the EC50 is less than 0.1 µM.

Turning to `Cc1nc(C)c([C@H](OC(C)(C)C)C(=O)O)c(N2CCC(C)(C)CC2)c1-c1ccc(OCCN2CCN(C)CC2)cc1` [Example 1, (S)-2-(tert-Butoxy)-2-(4-(4,4-dimethylpiperidin-1-yl)-2,6-dimethyl-5-(4-(2-(4-methylpiperazin-1-yl)ethoxy)phenyl)pyridin-3-yl)acetic Acid], the EC50 is, setting by setting: (MT2, 120 h, read-out: Activity) 0.1 to 1 µM; (MT2, 120 h, read-out: EC50 μM) 0.117 µM.

As for `Cc1nc(C)c([C@H](OC(C)(C)C)C(=O)O)c(N2CCC(C)(C)CC2)c1-c1ccc(OCCN2CCC(C)CC2)cc1` [Example 7, (S)-2-(tert-Butoxy)-2-(4-(4,4-dimethylpiperidin-1-yl)-2,6-dimethyl-5-(4-(2-(4-methylpiperidin-1-yl)ethoxy)phenyl)pyridin-3-yl)acetic Acid], for the setting “MT2, 120 h, read-out: Activity”, the EC50 was less than 0.1 µM.

As for `Cc1nc(C)c([C@H](OC(C)(C)C)C(=O)O)c(N2CCC(C)(C)CC2)c1-c1ccc(OCCN2CCSCC2)cc1` [Example 13, (S)-2-(tert-Butoxy)-2-(4-(4,4-dimethylpiperidin-1-yl)-2,6-dimethyl-5-(4-(2-thiomorpholinoethoxy)phenyl)pyridin-3-yl)acetic Acid], the EC50 runs as follows: (MT2, 120 h, read-out: Activity) less than 0.1 µM; (MT2, 120 h, read-out: EC50 μM) 0.003 µM.

Take `Cc1nc(C)c([C@H](OC(C)(C)C)C(=O)O)c(N2CCC(C)(C)CC2)c1-c1ccc(OC2COCC2c2ccc(F)cc2)cc1` (stereo partly drawn) [Example 20, (2S)-2-(tert-Butoxy)-2-(4-(4,4-dimethylpiperidin-1-yl)-5-(4-((4-(4-fluorophenyl)tetrahydrofuran-3-yl)oxy)phenyl)-2,6-dimethylpyridin-3-yl)acetic acid]: the EC50 ({}) is less than 0.1 µM.

For `Cc1nc(C)c([C@H](OC(C)(C)C)C(=O)O)c(N2CCC(C)(C)CC2)c1-c1ccc(OC2CCCC2c2ccc(F)cc2)cc1` (stereo partly drawn) [Example 17, (2S)-2-(tert-Butoxy)-2-(4-(4,4-dimethylpiperidin-1-yl)-5-(4-((2-(4-fluorophenyl)cyclopentyl)oxy)phenyl)-2,6-dimethylpyridin-3-yl)acetic acid], the EC50 reads like this: (MT2, 120 h, read-out: Activity) less than 0.1 µM; (MT2, 120 h, read-out: EC50 μM) 0.012 µM.

For the molecule `Cc1nc(C)c([C@H](OC(C)(C)C)C(=O)O)c(N2CCC(C)(C)CC2)c1-c1ccc(OCCC2CCCCC2)cc1` [Example 2, (S)-2-(tert-Butoxy)-2-(5-(4-(2-cyclohexylethoxy)phenyl)-4-(4,4-dimethylpiperidin-1-yl)-2,6-dimethylpyridin-3-yl)acetic Acid], the EC50 by setting is: (MT2, 120 h, read-out: Activity) less than 0.1 µM; (MT2, 120 h, read-out: EC50 μM) 0.034 µM.

Take `Cc1nc(C)c([C@H](OC(C)(C)C)C(=O)O)c(N2CCC(C)(C)CC2)c1-c1ccc(OCCN2CCS(=O)(=O)CC2)cc1` [Example 14, (S)-2-(tert-Butoxy)-2-(4-(4,4-dimethylpiperidin-1-yl)-5-(4-(2-(1,1-dioxidothiomorpholino)ethoxy)phenyl)-2,6-dimethylpyridin-3-yl)acetic Acid]: the EC50 (MT2, 120 h, read-out: Activity) is less than 0.1 µM.

With `Cc1nc(C)c([C@H](OC(C)(C)C)C(=O)O)c(N2CCC(C)(C)CC2)c1-c1ccc(OC2CCOc3ccccc32)cc1` (stereo partly drawn) [Example 3, (2S)-2-(tert-Butoxy)-2-(5-(4-(chroman-4-yloxy)phenyl)-4-(4,4-dimethylpiperidin-1-yl)-2,6-dimethylpyridin-3-yl)acetic Acid], where the note is “MT2, 120 h, read-out: Activity”, the EC50 is less than 0.1 µM.

On to `Cc1nc(C)c([C@H](OC(C)(C)C)C(=O)O)c(N2CCC(C)(C)CC2)c1-c1ccc(OC2CC(c3ccc(F)cc3)C2)cc1` (stereo partly drawn) [Example 15, (S)-2-(tert-Butoxy)-2-(4-(4,4-dimethylpiperidin-1-yl)-5-(4-(3-(4-fluorophenyl)cyclobutoxy)phenyl)-2,6-dimethylpyridin-3-yl)acetic Acid], for which the EC50 (MT2, 120 h, read-out: Activity) was less than 0.1 µM.

As for `Cc1nc(C)c([C@H](OC(C)(C)C)C(=O)O)c(N2CCC(C)(C)CC2)c1-c1ccc(OC2COCC2c2ccc(F)cc2)cc1` (stereo partly drawn) [Example 19, (2S)-2-(tert-Butoxy)-2-(4-(4,4-dimethylpiperidin-1-yl)-5-(4-((4-(4-fluorophenyl)tetrahydrofuran-3-yl)oxy)phenyl)-2,6-dimethylpyridin-3-yl)acetic acid], the EC50 (MT2, 120 h, read-out: Activity) is less than 0.1 µM.

In the case of `Cc1nc(C)c([C@H](OC(C)(C)C)C(=O)O)c(N2CCC(C)(C)CC2)c1-c1ccc(OC2Cc3ccccc3C2)cc1` [Example 12, (S)-2-(tert-Butoxy)-2-(5-(4-((2,3-dihydro-1H-inden-2-yl)oxy)phenyl)-4-(4,4-dimethylpiperidin-1-yl)-2,6-dimethylpyridin-3-yl)acetic Acid], where the note is “MT2, 120 h, read-out: Activity”, the EC50 is less than 0.1 µM.

Consider `Cc1nc(C)c([C@H](OC(C)(C)C)C(=O)O)c(N2CCC(C)(C)CC2)c1-c1ccc(OC2CCCC2c2ccc(F)cc2)cc1` (stereo partly drawn) [Example 18, (2S)-2-(tert-Butoxy)-2-(4-(4,4-dimethylpiperidin-1-yl)-5-(4-((2-(4-fluorophenyl)cyclopentyl)oxy)phenyl)-2,6-dimethylpyridin-3-yl)acetic acid], for which the EC50 ({}) is less than 0.1 µM.

For `Cc1nc(C)c([C@H](OC(C)(C)C)C(=O)O)c(N2CCC(C)(C)CC2)c1-c1ccc(OCC2CCC(C)CC2)cc1` (stereo partly drawn) [Example 9, (S)-2-(tert-Butoxy)-2-(4-(4,4-dimethylpiperidin-1-yl)-2,6-dimethyl-5-(4-((4-methylcyclohexyl)methoxy)phenyl)pyridin-3-yl)acetic Acid], under “{}”, the EC50 is less than 0.1 µM.

Regarding `Cc1nc(C)c([C@H](OC(C)(C)C)C(=O)O)c(N2CCC(C)(C)CC2)c1-c1ccc(OCCN2CCN(Cc3ccc(F)cc3)CC2)cc1` [Example 10, (S)-2-(tert-Butoxy)-2-(4-(4,4-dimethylpiperidin-1-yl)-5-(4-(2-(4-(4-fluorobenzyl)piperazin-1-yl)ethoxy)phenyl)-2,6-dimethylpyridin-3-yl)acetic Acid], the EC50 (MT2, 120 h, read-out: Activity) is less than 0.1 µM.
